Results reported in a melting point compilation (Tetko et al.; mined from patent text by program, amines drawn as free bases though some values may be those of a salt).

Row | Compound | melting point [°C]
1 | O=C(NC(Cc1ccc(OCc2ccccc2)cc1)C(=O)O)c1cn2ccc(-c3ccc(Cl)cc3)cc2n1 (configuration not stated) | 248 to 249
2 | CCC(O)CN1CCC(c2noc3cc(F)ccc23)CC1 (configuration not stated) | 87 to 88
3 | CCCCCCOc1ccc(-c2ncc(C#N)cn2)cc1 | 93.5 to 93.8
4 | O=C(O)c1cn(C2CC2)c2c(F)c(N3CCC(=NO)C3)c(F)c(F)c2c1=O | 300
5 | O=C(O)CSC(CCc1ccccc1)c1ccc(OCc2ccc3ccccc3n2)cc1 (configuration not stated) | 117 to 118
6 | Nc1ccc(C23CC(C2)C(=O)N(C2CCCCC2)C3=O)cc1 | 139
7 | CCC1=Nc2c(C)nn(C)c2C2=NCC(C)N12 (configuration not stated) | 105 to 107
8 | CC1CC2=C(Cc3ccccc32)C([Si](C)(C)C2CC(C)CC3=C2Cc2ccccc23)C1 (configuration not stated) | 179 to 180
9 | CS(=O)(=O)c1ccc(C2=C(c3ccccc3)CC2)cc1 | 73 to 75
10 | O=CN1[C@@H](c2cccnc2)SC[C@H]1C(=O)O | 250
11 | C#CCNc1cc(F)c([N+](=O)[O-])cc1[N+](=O)[O-] | 113 to 115
12 | COCOc1c(N=Nc2ccc(OC)cc2)cc(OC)cc1C(C)(C)C | 102 to 103
13 | COC(=O)c1ccc(C)c(-n2c(C)cc(OCc3ccccc3CNC(=O)Nc3cc(C(C)(C)C)nn3-c3ccc(O)cc3)c(Cl)c2=O)c1 | 199 to 200
14 | COc1cccc2c1nc(C1CC1)n2Cc1c(F)cccc1F | 136 to 139
15 | CC(C)CNS(=O)(=O)CCCCl | 68 to 69
16 | CCOC(=O)c1cn(C)c2cc(CC)ccc2c1=O | 92 to 94
17 | CCCCCC(C)C(C)c1cc(O)c2c(c1)OC(C)(C)C1=C2CN(CC(=O)NC(N)=O)CC1 (configuration not stated) | 131 to 133
18 | Cc1ccc(S(=O)(=O)c2nc(C)c(Br)c(C)n2)cc1 | 157 to 158
19 | COc1ccc(C2CCN(c3c(C)c(C)c4c(c3C)C(O)(c3ccc(C)cc3)C(C)(C)O4)CC2)cc1OC (configuration not stated) | 133 to 135
20 | CCOC(=O)CCCNC(=O)c1n[nH]cc1NC(=O)c1ccccn1 | 179 to 180
21 | CC(=O)NC1Cc2ccc(OC(=O)CCl)cc2C1 (configuration not stated) | 106 to 108
22 | Cc1nc(-c2ccc3c(c2)CCCC3)c(CC(Cl)C(=O)O)o1 (configuration not stated) | 141 to 142
23 | COc1ccc2c(c1)c(C=O)cn2CCCCl | 75 to 76
24 | O=C(O)Cc1cc(Cl)c2c(c1)CCC(c1ccccc1)N2 (configuration not stated) | 126 to 127
25 | CN(c1cccc2cc(C3=NCC(CCN)S3)[nH]c12)S(=O)(=O)c1cccs1 (configuration not stated) | 172 to 174
26 | CC(=O)OC=C1CSC2C(NC(=O)Cc3ccccc3)C(=O)N2C1C(=O)OC(C)(C)C (configuration not stated) | 178 to 183

Row | Compound | melting point [°C]
27 | Cc1ccccc1-c1nc2c3ccccc3ccn2c1NC(C)c1ccccc1 (configuration not stated) | 160 to 162
28 | CS(=O)(=O)c1ccc(-c2oc3ccccc3c(=O)c2-c2ccc(F)cc2)cc1 | 98 to 100
29 | COc1cc(C2OCC(C)(C)C2(O)C(C)(C)C)cc(OC)c1Br (configuration not stated) | 130 to 131
30 | CSc1ccc(NC(=O)Nc2cc(-c3c(-c4ccc(F)c(C)c4)nc4cccnn34)ccn2)cc1 | 219 to 220
31 | O=[N+]([O-])c1cccc(COc2cccc3cccnc23)c1 | 98 to 99
32 | COc1cc(COC2CCN(C(=O)c3ccc([N+](=O)[O-])cc3)CC2)cc(OC)c1OC | 124
33 | Cc1cc2[nH]c(=O)c(C(=O)O)nc2cc1-n1ccc(CNC(=O)Nc2ccc(C(=O)O)cc2)c1 | > 300
34 | O=C(O)c1csc(Nc2ccc(Cl)c(C(F)(F)F)c2)n1 | 254 to 256
35 | Nc1ccc(Oc2ccccc2)cc1SC(c1ccc2c(c1)OCO2)C(O)C(=O)O (configuration not stated) | 158 to 159
36 | CCCCCCCCCCCCOc1ccc(C(=O)O)o1 | 122 to 123
37 | Nc1c(CCO)cccc1C(=O)c1ccc(Br)cc1 | 126 to 127
38 | O=C(NCCCCn1cncn1)c1ccco1 | 78 to 79
39 | N#CCc1cccc2c(-c3ccc(Cl)cc3)nccc12 | 132
40 | COC(=O)c1ccc(C(=O)NNC(=O)c2ccc(C(=O)OC)cc2)cc1 | 287 to 290
41 | COc1ccc2c(CNCCCCCCCCCCC(=O)O)cc3cc4c(cc3c2c1)OCO4 | 146 to 148
42 | Cn1c(C#N)cc(Br)c1Br | 104 to 105
43 | CCOC(=O)C=Cc1cc(C=CC(=O)OCC)cc(CO)c1 | 68 to 69.5
44 | O=C(NCc1ccccc1)N1CC(Oc2cccc(C(F)(F)F)c2)C1 | 174 to 175
45 | CCOC(=O)[C@H](Cc1ccc(Nc2nccc3ccncc23)cc1)NC1=C(Br)C(=O)C12CCCCC2 | 192 to 195
46 | O=c1c2ccccc2c(-c2ccccc2)cn1CCCN1CCCCC1 | 118
47 | CCCCc1nc(C(C)O)c(C#N)n1Cc1ccc(-c2ccccc2C(=O)O)cc1 (configuration not stated) | 200 to 201
48 | O=C1CCC(c2ccc(Cl)cc2)CN1CNC(=S)NCN1CC(c2ccc(Cl)cc2)CCC1=O (configuration not stated) | 212 to 213
49 | Cn1nc(C(F)(F)F)c(CSC2=NOC(C)(CCl)C2)c1O (configuration not stated) | 111 to 112
50 | C[C@@H](Cc1c2n(c3ccc(O)cc13)CCC2)NC(=O)OC(C)(C)C | 135 to 136
51 | Cc1nc(-c2cc3c(Oc4ccc(Cl)cc4)cncc3s2)no1 | 120 to 121
52 | CC(=O)CC(=O)Nc1nc(C)c(C)s1 | 191 to 193

Row | Compound | melting point [°C]
53 | CNc1nc(-c2cccc(NC(=O)c3ccc(S(C)(=O)=O)cc3)c2)c2cc(OC)c(OC)cc2n1 | 277 to 279
54 | C/C=C/C(=O)Nc1ccc2ncnc(Nc3cccc(Br)c3)c2c1 | 153 to 160
55 | CC(C)(C)OC(=O)N1CC(CCl)c2c1ccc1ccccc21 (configuration not stated) | 107 to 108
56 | Clc1ccc(C(=NN=Cc2cccnc2)SSC(=NN=Cc2cccnc2)c2ccc(Cl)cc2)cc1 | 143 to 145
57 | O=C1c2ccccc2C(=O)N1OCCN(CCO)CCON1C(=O)c2ccccc2C1=O | 136 to 138
58 | N#CC1=C(c2ccccc2)Nc2n[nH]cc2C1c1cccc(C#N)c1Br (configuration not stated) | > 270
59 | O=C(O)CCCc1nc2nc[nH]c2c2nc(-c3ccccc3)nn12 | 280
60 | CS(=O)(=O)c1ccc(-c2cc(=O)n(CC3CCCCC3)nc2-c2ccc(F)cc2)cc1 | 175 to 176
61 | COc1ccc(C=C2SC(=S)N(CC(=O)O)C2=O)cc1-c1cc2c(cc1C)C(C)(C)CCC2(C)C | 242 to 244
62 | CCNC1=NS(=O)(=O)c2cccc(F)c21 | 236 to 238
63 | CCOc1c(C=NO)c(=O)n(C)c(=O)n1C | 115
64 | N#Cc1cccnc1N1CCN(CNC(=O)c2ccccc2Cl)CC1 | 137 to 139
65 | O=C1Cc2cc3ccccc3cc2C(c2ccccc2Cl)N1 (configuration not stated) | 234 to 237
66 | Clc1ccc(-c2cnccn2)cc1 | 77 to 77.5
67 | CS(=O)(=O)c1ccccc1-c1ccn[nH]c1=O | 123 to 125
68 | CCn1cc(C(=O)O)c(=O)c2cc(F)c(N3CC(C)C(CN)C3)cc21 (configuration not stated) | 245 to 248
69 | CCCCNc1c(C(=O)OCC)cnc2c1cnn2CC | 82 to 83
70 | CCOC1=NN(C)C(=O)C1 | 79 to 80
71 | N#Cc1cc(Cc2ccccc2Cl)ccc1N | 79 to 80
72 | CN(C)C=CC(=O)c1cc(Cl)cc(Cl)c1 | 100
73 | CCOC(=N)c1ccccc1-c1ccc(Cn2c(OCC)nc3cccc(C(=O)OC)c32)cc1 | 105 to 106
74 | COC(=O)c1cnc(C(=O)O)cn1 | 183 to 185
75 | O=C1CCC(N2CCN(Cc3ccccc3)CC2)CC1 | 83 to 85
76 | O=C(O)CCCCC=Cc1cn(-c2cccnc2)c2ccccc12 | 124 to 125
77 | CS(=O)(=O)CS(C)(=O)=O | 146
78 | O=C(Nc1ccc(Cl)cc1)n1cc(F)c(=O)[nH]c1=O | > 260

Row | Compound | melting point [°C]
79 | FC(F)COc1cc(NC2=NCC3(CN4CCC3CC4)O2)ncn1 (configuration not stated) | 83 to 88
80 | Cc1cc(-c2nc3cccnn3c2-c2ccnc(NC(=O)c3cccc4ccccc34)c2)ccc1F | 252 to 253
81 | COc1cc(N)nc(N2CCOCC2)n1 | 162 to 164
82 | C=COCCCCOC(=O)CCCCCCCCCCC(=O)OCCCCOC=C | 42 to 43
83 | COCCNC(=O)c1cc(-c2ccccc2)c(=O)[nH]c1-c1c(Cl)cccc1C#N | 252 to 255
84 | N#CSc1nc(Cl)ncc1F | 103 to 104
85 | ClC(Cl)(Cl)C1Nc2ccccc2CO1 (configuration not stated) | 90 to 92
86 | CC(C)(N)CNC(=O)CNC(=O)c1ccccc1 | 80 to 84
87 | CCOC(=O)Cc1cc(O)n[nH]1 | 114 to 117
88 | CCOC(=O)N1CCN(c2nc(NC3CC3)ccc2F)CC1 | 68 to 70
89 | CCCNC(=O)C1(CCCCN2CCC(N3Cc4ccccc4C3=O)CC2)C(c2ccccc2)=Cc2ccccc21 (configuration not stated) | 156 to 157
90 | CCOC(=O)CNC(=O)CCc1cc(Cl)ccc1C(=O)CCCNC(C)=O | 96
91 | COc1cc(N2CCC(N3CCN(C)CC3)CC2)ccc1Nc1ncc2ccc(-c3ccccc3S(=O)(=O)N(C)C)n2n1 | 198 to 205
92 | CCOC(=O)c1cnn(-c2c(Cl)cc(Cl)cc2Cl)c1O | 228
93 | CN1C(=O)C2(COc3cc4c(cc32)OCCO4)c2c(Oc3ccccn3)cccc21 (configuration not stated) | 219 to 221
94 | O=[N+]([O-])c1c(-c2c(C(F)(F)F)[nH]c(-c3ccc(Cl)cc3)c2[N+](=O)[O-])csc1Br | 186 to 190
95 | COC(=O)c1ccc(-c2csc(N3C(=O)OCC3(C)C)n2)cc1 | 176 to 179
96 | CCOC(=O)C1=C(c2ccccc2)Nc2n[nH]cc2C1c1ccccc1Cl (configuration not stated) | 214
97 | COc1ccc(-c2[nH]nc3c2C(=O)c2c(NC(=O)Cc4ccc5c(c4)OCCO5)cccc2-3)cc1 | 297
98 | CC(C)S(=O)(=O)c1ccc2c(c1)nc(CC(C)(C)C)n2CC1(O)CCOCC1 | 189
99 | COc1ccc(-n2nc(Sc3cccc(C)c3)c(C)c(C#N)c2=O)cc1 | 121 to 122
100 | CC1(C)C(C=C(Br)Br)C1C(=O)OCc1cccc(Oc2ccccc2)c1 (configuration not stated) | 93
101 | CC(C)(C(=O)O)c1ccc(Cl)c([N+](=O)[O-])c1 | 157
102 | Cc1[nH]c(=O)[nH]c1C(=O)c1ccccc1 | 250 to 254
